Test results published in PMC10065799, “High-throughput profiling of sequence recognition by tyrosine kinases and SH2 domains using bacterial peptide display” (eLife, 2023).

Target: T1, c-Abl kinase domain (Mus musculus, UniProt P00520)
T1 sequence (P00520 242-493 limits assumed): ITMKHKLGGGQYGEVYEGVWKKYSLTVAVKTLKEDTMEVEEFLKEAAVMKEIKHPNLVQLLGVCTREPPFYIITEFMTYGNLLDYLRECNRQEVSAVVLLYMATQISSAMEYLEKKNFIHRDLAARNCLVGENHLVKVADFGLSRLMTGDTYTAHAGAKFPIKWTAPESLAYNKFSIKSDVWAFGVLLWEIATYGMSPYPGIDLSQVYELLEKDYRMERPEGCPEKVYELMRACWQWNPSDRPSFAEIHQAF
Test: pTyr-Var library bacterial peptide display kinase screen (enrichment scores)
Type: biochemical
Details: variant versus reference peptide

## ATGLIYIGSHD [AASDH_Y870_T865A]
  c-Abl difference (mean log2 variant - mean log2 reference): 0.7644
